In one assay the test system is hER. Kind of assay: Fluorescence-based competitive binding assay for hER (displacement of fluormone ES2). Also on record: species or system human. The conditions noted are these: for Relative Binding Affinity: RBA = IC50 of tamoxifen/IC50 of test molecule, tamoxifen set at 1. How it is done: The estrogen receptor competitor assay kits (Panvera, Madison, Wis.) were used to determine the ability of test molecules to displace the fluormone, ES2, from hER -ES2 or hER -ES2 complex. Serial dilutions of each test molecule were prepared in methanol or DMSO. The recombinant hER or hER (7 nM) was preincubated with ES2 (1 nM) in screening buffer. After the preincubation, the test molecules and ER-ES2 complex solution were added into the 96-well microplate to produce a final volume of 100 μl per well. The reaction was incubated at room temperature for 1 hr and the polarization values were measured by using fluorescence microplate reader, Polarion (Tecan, Research Triangle Park, N.C.) with excitation wavelength 495 nm and emission wavelength 535 nm. The polarization value versus test molecule concentration curves was analyzed by graphfit software to generate IC50 values.
In this assay, recombinant hER and the commercial synthetic estrogen, ES2 containing fluorescence polarization property, are used. This assay is a homogenous assay. When the assay solution only contains ES2, the solution exerts weak fluorescence polarization property due to the quick rotation of free ES2 molecule. […] Addition of the antiestrogen to the ES2/hER displaces ES2 from hER and results in the whole solution exerting less fluorescence polarization property than the solution without antiestrogen.

The target of another assay is T1, hERα (Homo sapiens, UniProt P03372).
T1 construct: mammalian expression plasmid containing full length human ER cDNA, pCMV-hER; expressed in transfected cells; host or cells: MCF-7 human breast cancer cells
T1 sequence (P03372 1-595): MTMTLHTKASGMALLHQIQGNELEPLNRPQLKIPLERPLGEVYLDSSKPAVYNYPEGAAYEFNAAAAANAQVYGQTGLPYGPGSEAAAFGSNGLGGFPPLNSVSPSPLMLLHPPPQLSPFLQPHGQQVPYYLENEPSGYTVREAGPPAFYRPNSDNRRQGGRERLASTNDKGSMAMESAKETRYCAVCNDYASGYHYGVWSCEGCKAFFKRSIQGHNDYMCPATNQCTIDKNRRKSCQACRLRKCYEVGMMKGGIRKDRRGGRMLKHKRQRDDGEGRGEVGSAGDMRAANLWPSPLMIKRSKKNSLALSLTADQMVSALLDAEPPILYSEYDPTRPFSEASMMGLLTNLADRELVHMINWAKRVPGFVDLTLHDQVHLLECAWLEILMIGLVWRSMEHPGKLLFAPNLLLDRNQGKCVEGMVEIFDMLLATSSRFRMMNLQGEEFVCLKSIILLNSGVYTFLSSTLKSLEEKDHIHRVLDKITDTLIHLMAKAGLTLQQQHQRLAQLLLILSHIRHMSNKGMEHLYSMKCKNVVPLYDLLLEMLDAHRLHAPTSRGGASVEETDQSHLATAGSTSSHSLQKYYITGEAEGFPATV
Description: Transient transfection reporter assay for hERα in MCF-7 cells. Also on record: Relative Estrogenic Activity: dose or concentration left out as unconfirmed. The conditions noted are these: for Relative Estrogenic Activity: MCF-7 cells transfected with hERα, DMSO set as 1; for estrogenic effect: MCF-7 cells, hERα, compared with DMSO and tamoxifen; for antiestrogenic / inhibition activity: against 1 nM estrogen; for Relative Antiestrogenic Activity at 2.5 μM: with 1 nM estradiol, 1 nM E2 used as reference (1). It counts as cell-based. How it is done: For the transient transfection reporter assays, the cells were plated in triplicate in 12-well plates at a density of 300000 cells/well in the phenol red-free DMEM (GIBCO/BRL, Grand Island, N.Y.) supplemented with 10% charcoal-stripped fetal bovine serum (Hyclone, Logan, Utah), Penicillin (100 unit/ml)/Streptomycin ([…]), 2 mML-glutamine and 1 mM sodium Pyruvate. 24 hrs later, the cells were transfected with three plasmids by using Superfect transfection kit (Qiagen, Valencia, Calif.). For the detection of hER activity, cells were transfected with 2 g hER expression plasmid (pCMV-ER ), 6 g luciferase reporter plasmid containing estrogen receptor response element (PGL-TATA-Luc), and 600 ng normalization control, β-galactosidase reporter plasmid (pCMV ). For the detection of hER activity, cells were transfected with 3 ug hER expression plasmid (pcDNA3.1-hER), 6 g luciferase reporter plasmid containing estrogen receptor response element (PGL-TATA-Luc), and 600 ng pCMV. For determining the influence of ER's major coactivator in breast, AIB 1, 2 g pcDNA3.1-AIB1 was added into the transfection plasmid solution mentioned previously.
The transfected cells were rinsed with PBS and treated with various concentrations of test molecules and one […] (vehicle, DMSO or methanol) in phenol red-free culture medium. After incubation for further 24 hrs, the cells were washed with PBS and lysed with lysis buffer (Pierce, Rockford, Ill.). The lysate was used to determine the luciferase activity for ER's activity and the β-galactosidase activity for the normalization of transfection efficiency.
For the luciferase activity assay, 20 μl of lysate and 100 μl luciferase assay buffer (Promega, Madison, Wis.) were added into a well of 96-well plate. The luminescence was detected by using luminescence microplate reader, LumiCount (Packard, Boston, Mass.). For the β-galactosidase activity assay, […] β-galactosidase assay buffer (Clontech, Palo Alto, Calif.) were added into a well of 96-well plate. The β-galactosidase activity was measured as luminescence strength by using luminescence microplate reader, LumiCount (Packard, Boston, Mass.). The normalized reporter activity was calculated by the luciferase activity divided by that of β-galactosidase.
The transient transfection reporter assay was used to determine the estrogenic or antiestrogenic activity of tested compounds in employed human breast cancer cells, MCF-7 cells that are cotransfected with hERα expression and reporter plasmids. […] […] The estrogenic (antiestrogenic) activity was determined by dividing the luciferase activity by the β-galactosidase activity. To determine the influence of estrogen receptor's major coactivator in breast cancer, AIB1, for the compounds' estrogenic activity, the expression vector of AIB1 was additionally cotransfected with the plasmids mentioned above.
In general terms: Reporter assays use an easily measured gene product as a stand-in for the process of interest.

A further assay concerns MCF-7 cells. Description: hERα positive breast cancer cell proliferation assay. Type of assay: cell-based, human. Particulars: for activity at 5 µM: Homo sapiens, MCF7, 72 h, MCF-7 cells, DMSO = 1, read-out: Relative Cancer Cell Proliferation Effects at 5 μM. How it is done:
MCF-7 or MDA-MB-231 cells were inoculated into 12-well culture plates at 10000 cells in 2 ml maintained medium per well. Cells were allowed to attach to the bottom for 24 hrs incubation, then the seeding medium was removed and replaced by the experimental medium (phenol red-free DMEM supplemented with 5% charcoal-stripped fetal bovine serum and Penicillin (100 unit/ml)/Streptomycin ([…])). After 24 hr incubation, the test molecules dissolved in DMSO were added in the wells. […] The culture was continued for 3 days and the medium and tested compounds were replaced every two days. The final cell numbers were estimated with CellTiter proliferation assay kit (Promega, Madison, Wis.) by measuring the absorbance at 570 nm, which is directly proportional to the number of living cells in the culture.
MCF-7 cell line was used to perform this assay and the description of this assay as mentioned above. […] DMSO was used as reference.

On to `CCCCNC(=O)CCCCCCCCCCOCC1Cc2ccccc2CN1C(=O)c1cccc(O)c1` (stereo not shown) [Compound 6], for which, in the assay with hER, the “binding affinity for hER compared with tamoxifen” value is “highest binding affinity and higher than tamoxifen”; the “Relative Binding Affinity” value turned out to be 5.0. For the same compound, on hERα, the “Relative Estrogenic Activity” value came to 1.03, the “estrogenic effect” value is given as “do not exert any estrogenic effects”, the “antiestrogenic / inhibition activity” value is “strongest inhibition activity” and the “Relative Antiestrogenic Activity at 2.5 μM” value is on record as 0.44. Besides, in the assay with MCF-7 cells, the “inhibition effects against MCF-7 cell proliferation” value is given as “strongest inhibition effects” and the activity at 5 µM was 62%. Also, in the assay with MCF-7 cells (relative to DMSO), the “inhibition of MCF-7 cell proliferation” value is given as 38%.
As to `CCCCNC(=O)CCCCCCCCCCOCC1Cc2ccccc2CN1C(=O)c1ccc(O)cc1` (stereo not shown) [Compound 7], in the assay with hER, the “binding affinity for hER compared with tamoxifen” value is “highest binding affinity and higher than tamoxifen”; the “Relative Binding Affinity” value is listed as 1.79. Further, on hERα, the “Relative Estrogenic Activity” value is 2.05, the “estrogenic effect” value was “highest estrogenic effect”, the “antiestrogenic / inhibition activity” value is “moderate antiestrogenic activity” and the “Relative Antiestrogenic Activity at 2.5 μM” value is on record as 0.76. Also, the activity at 5 µM in the assay with MCF-7 cells amounted to 95%.
As to `CCCCNC(=O)CCCCCCCCCCOCC1Cc2ccccc2CN1C(=O)c1cccc(OC)c1` (stereo not shown) [Compound 4], in the assay on hER, the “Relative Binding Affinity” value was found to be 0.192. Further, at hERα, the “Relative Estrogenic Activity” value was found to be 0.78, the “estrogenic effect” value is on record as “do not exert any estrogenic effects” and the “Relative Antiestrogenic Activity at 2.5 μM” value is 0.79. For the same compound, in the assay on MCF-7 cells, the “inhibition effects against MCF-7 cell proliferation” value was “slightly lower inhibition effects than compound 6” and the activity at 5 µM is 70%.

These data come from patent US7601739B2, “Compounds having antiestrogenic and tissue selective estrogenic properties, and compounds with anti-androgenic properties for treatment of prostate cancer and androgen receptor dependent diseases” (Virgina Commonwealth University, priority 2006, dated 2009).
